Experimental data taken from ChEMBL document CHEMBL5365436, “Novel Amphibian Bowman-Birk-Like Inhibitor with Antioxidant and Anticoagulant Effects Ameliorates Pancreatitis Symptoms in Mice” (J Med Chem, 2023).
The source made the active and inactive calls. No cut-off for these calls is given here. Positions of bridges follow the written chain, without caps; N, C: chain ends. Residues, ends and D or L forms follow the SMILES beside them.

How the values were obtained:
[1] = system: Mus musculus; assay: Anti-inflammatory activity in L-arginine-induced acute pancreatitis in BALB/c mouse model assessed as inhibition of trypsin activity at 50 mg/kg preincubated with compound followed by L-Arg induction for 1 hr and measured after 24 hrs; type: functional, organism-based; conditions: time 25.0 hrs
[2] = system: Mus musculus; assay: Anti-inflammatory activity in L-arginine-induced acute pancreatitis in BALB/c mouse model assessed as reduction in IL-6 level at 50 mg/kg preincubated with compound followed by L-Arg induction for 1 hr and measured after 24 hrs by ELISA method; type: functional, organism-based; conditions: time 25.0 hrs
[3] = system: Mus musculus; assay: Anti-inflammatory activity in L-arginine-induced acute pancreatitis in BALB/c mouse model assessed as reduction in serum amylase at 50 mg/kg preincubated with compound followed by L-Arg induction for 1 hr and measured after 24 hrs by automatic analyzer; type: functional, organism-based; conditions: time 25.0 hrs
[4] = system: Mus musculus; assay: Anti-inflammatory activity in L-arginine-induced acute pancreatitis in BALB/c mouse model assessed as decrease in platelet to lymphocyte ratio at 5 mg/kg preincubated with compound followed by L-Arg induction for 1 hr and measured after 24 hrs; type: functional, organism-based; conditions: time 25.0 hrs
[5] = organism: Mus musculus; assay: Anti-inflammatory activity in L-arginine-induced acute pancreatitis in BALB/c mouse model assessed as reduction in IL-6 level preincubated with compound followed by L-Arg induction for 1 hr and measured after 24 hrs by ELISA method; type: functional, organism-based; conditions: dose 1.25-5 mg/kg, time 25.0 hrs
[6] = system: Mus musculus; assay: Anti-inflammatory activity in L-arginine-induced acute pancreatitis in BALB/c mouse model assessed as reduction in acinar cell necrosis in pancreas at 1.25 to 5 mg/kg preincubated with compound followed by L-Arg induction for 1 hr and measured after 24 hrs by H and E staining based analysis; type: functional, organism-based; conditions: dose 1.25-5 mg/kg, time 25.0 hrs
[7] = system: Mus musculus; assay: Anti-inflammatory activity in L-arginine-induced acute pancreatitis in BALB/c mouse model assessed as reduction in neutrophil infiltration in pancreas at 1.25 to 5 mg/kg preincubated with compound followed by L-Arg induction for 1 hr and measured after 24 hrs by H and E staining based analysis; type: functional, organism-based; conditions: dose 1.25-5 mg/kg, time 25.0 hrs
[8] = system: Mus musculus; assay: Anti-inflammatory activity in L-arginine-induced acute pancreatitis in BALB/c mouse model assessed as decrease in neutrophil to lymphocyte ratio at 5 mg/kg preincubated with compound followed by L-Arg induction for 1 hr and measured after 24 hrs; type: functional, organism-based; conditions: time 25.0 hrs
[9] = organism: Mus musculus; assay: Anti-inflammatory activity in L-arginine-induced acute pancreatitis in BALB/c mouse model assessed as reduction in serum amylase preincubated with compound followed by L-Arg induction for 1 hr and measured after 24 hrs by automatic analyzer; type: functional, organism-based; conditions: dose 1.25-5 mg/kg, time 25.0 hrs
[10] = system: Mus musculus; assay: Antioxidant activity in L-arginine-induced acute pancreatitis in BALB/c mouse model assessed as reversal of GSH level at 1.25 to 5 mg/kg by DCFH-DA staining method; type: functional, organism-based; conditions: dose 1.25-5 mg/kg
[11] = system: Mus musculus; assay: Antithrombotic activity FeCl3-induced thrombosis in BALB/c mouse model assessed as carotid artery blood flow time at 5 mg/kg preincubated with compound followed by FeCl3 treatment for 1 hr and measured upto 12 mins by laser perfusion imaging method; type: functional; conditions: time 72 min, 1.2 h
[12] = molecular target: T1, Trypsin (Homo sapiens, UniProt P07477+P07478+P35030); assay: Binding affinity to trypsin (unknown origin) assessed as dissociation constant by surface plasmon resonance imaging method; type: protein assay
[13] = Antioxidant activity assessed as DPPH radical scavenging activity at 40 uM measured at 10 min by microplate reader analysis relative to control; type: functional
[14] = system: Mus musculus; assay: Anti-inflammatory activity in L-arginine-induced acute pancreatitis in BALB/c mouse model assessed as inhibition of trypsin activity at 1.25 to 5 mg/kg preincubated with compound followed by L-Arg induction for 1 hr and measured after 24 hrs; type: functional, organism-based; conditions: dose 1.25-5 mg/kg, time 25.0 hrs
[15] = organism: Mus musculus; assay: Anti-inflammatory activity in L-arginine-induced acute pancreatitis in BALB/c mouse model assessed as inhibition of increase in myeloperoxidase activity at preincubated with compound followed by L-Arg induction for 1 hr and measured after 24 hrs; type: functional, organism-based; conditions: dose 1.25-5 mg/kg, time 25.0 hrs
[16] = Antioxidant activity assessed as ferric reducing capacity at 40 uM measured at 10 min by FRAP assay (reference value: 20.87 %); type: functional; design: scale not given: the % may be the effect or the level left
[17] = molecular target: T1, Trypsin; assay: Inhibition of trypsin (unknown origin) assessed as inhibition of casein hydrolysis using S2238 as chromogenic substrate preincubated for 5 mins followed by substrate addition and measured after 11 mins by absorbance based analysis; type: protein assay; conditions: dose 0.3125-10 µM, time 16.0 min
[18] = system: Mus musculus; assay: Antioxidant activity in L-arginine-induced acute pancreatitis in BALB/c mouse model assessed as reversal of SOD activity at 1.25 to 5 mg/kg by DCFH-DA staining method; type: functional, organism-based; conditions: dose 1.25-5 mg/kg
[19] = molecular target: T1, Trypsin; assay: Binding affinity to trypsin (unknown origin) assessed as inhibition constant by Lineweaver-Burk plot analysis; type: protein assay
[20] = system: Mus musculus; assay: Anti-inflammatory activity in L-arginine-induced acute pancreatitis in BALB/c mouse model assessed as reduction in interstitial edema in pancreas at 1.25 to 5 mg/kg preincubated with compound followed by L-Arg induction for 1 hr and measured after 24 hrs by H and E staining based analysis; type: functional, organism-based; conditions: dose 1.25-5 mg/kg, time 25.0 hrs
[21] = organism: Mus musculus; assay: Antithrombotic activity in L-arginine-induced acute pancreatitis in BALB/c mouse model assessed as prolongation of plasma recalcification time preincubated with compound followed by L-Arg induction for 1 hr and measured after 24 hrs by fluorescence based analysis; type: functional, organism-based; conditions: dose 0.1-50 µM, time 25.0 hrs
[22] = system: Mus musculus; assay: Antithrombotic activity in L-arginine-induced acute pancreatitis in BALB/c mouse model assessed as reduction in thrombosis by measuring fluorescence intensity at 5 mg/kg preincubated with compound followed by L-Arg induction for 1 hr and measured after 24 hrs by imaging based analysis (reference value: 24497.7); type: functional; conditions: time 25 hrs
[23] = system: Mus musculus; assay: Anti-inflammatory activity in L-arginine-induced acute pancreatitis in BALB/c mouse model assessed as reduction in hemorrhage in pancreas at 1.25 to 5 mg/kg preincubated with compound followed by L-Arg induction for 1 hr and measured after 24 hrs by H and E staining based analysis; type: functional, organism-based; conditions: dose 1.25-5 mg/kg, time 25.0 hrs
[24] = Antioxidant activity assessed as ABTS radical scavenging activity at 40 uM measured at 10 min by microplate reader analysis relative to control; type: functional
[25] = system: Mus musculus; assay: Anti-inflammatory activity in L-arginine-induced acute pancreatitis in BALB/c mouse model assessed as improvement in neutrophil level in spleen at 1.25 to 5 mg/kg preincubated with compound followed by L-Arg induction for 1 hr and measured after 24 hrs by flow cytometry analysis; type: functional, organism-based; conditions: dose 1.25-5 mg/kg, time 25.0 hrs
[26] = system: Mus musculus; assay: Antioxidant activity in L-arginine-induced acute pancreatitis in BALB/c mouse model assessed as decrease in ROS accumulation at 1.25 to 5 mg/kg by DCFH-DA staining method; type: functional, organism-based; conditions: dose 1.25-5 mg/kg
[27] = organism: Mus musculus; assay: Antithrombotic activity in L-arginine-induced acute pancreatitis in BALB/c mouse model assessed as inhibition of thrombin induced platelet aggregation preincubated with compound followed by L-Arg induction for 1 hr and measured after 24 hrs by fluorescence based analysis; type: functional, organism-based; conditions: dose 12.5-50 µM, time 25.0 hrs
[28] = system: Mus musculus; assay: Anti-inflammatory activity in L-arginine-induced acute pancreatitis in BALB/c mouse model assessed as reduction in necrosis in pancreas at 1.25 to 5 mg/kg preincubated with compound followed by L-Arg induction for 1 hr and measured after 24 hrs by H and E staining based analysis; type: functional, organism-based; conditions: dose 1.25-5 mg/kg, time 25.0 hrs
[29] = system: Mus musculus; assay: Antioxidant activity in L-arginine-induced acute pancreatitis in BALB/c mouse model assessed as decrease in MDA level at 1.25 to 5 mg/kg by DCFH-DA staining method; type: functional, organism-based; conditions: dose 1.25-5 mg/kg

For `CC(=O)N[C@@H](CS)C(=O)O`, the Activity [1] was “Active”, the Activity [2] was “Active” and the Activity [3] was “Active”.
For `CC(C)C[C@H](NC(=O)[C@@H]1CSSC[C@H](NC(=O)CNC(=O)[C@H](CO)NC(=O)[C@H](CC(C)C)NC(=O)[C@@H](N)CO)C(=O)N[C@@H](Cc2c[nH]c3ccccc23)C(=O)N[C@@H]([C@@H](C)O)C(=O)N[C@@H](CCCCN)C(=O)N[C@@H](CO)C(=O)N[C@@H](Cc2ccccc2)C(=O)N2CCC[C@H]2C(=O)N[C@@H](CCCNC(=N)N)C(=O)N[C@@H](CCCCN)C(=O)N2CCC[C@H]2C(=O)N1)C(=O)N[C@@H](CCCNC(=N)N)C(=O)O` (H-SLSGCWTKSFPRKPCLR-OH; disulfide 5-15), the Activity [4] was “Active”, the Activity [5] was “Dose-Dependent Effect” and the Activity [6] was “Active”. The Activity [7] was “Active”, the Activity [8] was “Active” and the Activity [9] was “Dose-Dependent Effect”. The Activity [10] was “Active”, the Time [11] was 12.46 min and the Kd [12] was 1930 nM. The Activity [13] was 33.1%, the Activity [14] was “Active” and the Activity [15] was “Dose-Dependent Effect”. The Activity [16] was 66.5%, the inhibition [17] was “Dose-Dependent Effect” and the Activity [18] was “Active”. For the same compound, the Ki [19] was 2660 nM, the Activity [20] was “Active” and the Activity [21] was “Dose-Dependent Effect”. For the same compound, the Flu intensity [22] was 14936.4, the Activity [23] was “Active” and the Activity [24] was 58.8%. For the same compound, the Activity [25] was “Active”, the Activity [26] was “Active” and the Activity [27] was “Dose-Dependent Effect”. The Activity [28] was “Active” and the Activity [29] was “Active”.
